Data from patent publication US20120264796A1, “METHODS FOR MODULATING CIRCADIAN RHYTHMS” (THE SALK INSTITUTE FOR BIOLOGICAL STUDIES, priority 2009, published 2012).

Key:
Type in all cases: cell-based
[1] = test system: Fibroblasts stably expressing Bmal1-luciferase; assay: Continuous monitoring of Bmal1-driven luciferase activity in fibroblasts; conditions: media with 2 mM AICAR vs 25 mM glucose
Procedure: (§1) (A) Unsynchronized paired wild type (AMPK^+/+) or ampkα1^−/−; ampkα2^−/− (AMPK−/−) mouse embryonic fibroblasts were stimulated by 2 hour exposure to 50% horse serum followed by transfer to media containing 25 mM glucose, 0.5 mM glucose or 25 mM glucose supplemented with 1 mM AICAR. Quantitative PCR analysis was performed using cDNA samples collected at the indicated times following stimulation. Data represent the mean of two independent experiments, each analyzed in triplicate. (B) Fibroblasts stably expressing Bmal1-luciferase were cultured in media containing the indicated amounts of glucose with or without 2 mM AICAR. Typical results of continuous monitoring of luciferase activity are shown. (C and D) Quantitation of the circadian period (C) and amplitude (D) of Bmal1-driven luciferase activity from experiments performed as described in (B). Data in (C) and (D) represent the mean±standard deviation for four samples per condition. ANOVA analysis indicated a significant difference between categories. ** P<0.01 vs. samples cultured in 25 mM glucose in Scheffe's post-hoc analysis.
The Bmal1 promoter is repressed by REVERBα. Therefore, the effects of reducing glucose availability on circadian rhythms was examined using fibroblasts stably expressing luciferase under the control of a Bmal1 promoter. […]

[2] = test system: wild type (AMPK+/+) mouse embryonic fibroblasts; assay: Circadian reverbα and dbp expression by quantitative PCR in serum-stimulated wild type fibroblasts; conditions: 25 mM glucose supplemented with 1 mM AICAR, after 2 hour 50% horse serum, compared with 0.5 mM glucose
Procedure: as §1, with “ANOVA analysis indicated a significant difference between categories. ** P<0.01 vs. samples cultured in 25 mM glucose in Scheffe's post-hoc analysis.” left out
(§2) FIG. 4A-B show disruption of AMPK alters circadian rhythms in MEFs. […] Quantitative PCR analysis was performed using cDNA samples prepared from lysates collected at the indicated times following stimulation. Data represent the mean±standard deviation of two or three independent experiments each analyzed in triplicate. […]

[3] = test system: ampkα1−/−; ampkα2−/− (AMPK−/−) mouse embryonic fibroblasts; assay: Circadian reverbα and dbp expression by quantitative PCR in serum-stimulated MEFs lacking AMPK; conditions: 25 mM glucose supplemented with 1 mM AICAR
Procedure: as §1, with “ANOVA analysis indicated a significant difference between categories. ** P<0.01 vs. samples cultured in 25 mM glucose in Scheffe's post-hoc analysis.” left out
as §2

Q: For `NC(=O)c1ncn([C@@H]2O[C@H](CO)[C@@H](O)[C@H]2O)c1N` [AICAR, 5-amino-4-imidazolecarboxamide riboside], which “amplitude of Bmal1-luciferase expression” value [1] is on record?
A: Its value is “decreased the amplitude of Bmal1-luciferase expression”.

Q: What about the “amplitude of circadian reverbα and dbp expression” value [2] of the same compound?
A: The value was “mimicked the effects of glucose deprivation”.

Q: What about the “expression of reverbα and dbp” value [3] of the same compound?
A: Its value is “neither glucose deprivation nor AICAR treatment affected the expression of reverbα and dbp”.
